From patent US20100298557A1, “PYRAZOLOPYRIMIDINE COMPOUND” (Taisho Pharmaceutical Co., Ltd, priority 2006, published 2010)

Legend:
PCA reaction = test: Rat passive cutaneous anaphylaxis (PCA) test; assay type: in vivo; settings: male Wistar rats, oral administration four hours prior to antigen challenge, blue spot area
Method: The back of seven-week-old male Wistar rats was clipped under light anesthesia with ether, and the rats were sensitized by intradermal administration of 100 μl of 25 ng/ml anti-dinitrophenyl-IgE (DNP-IgE) (Sigma) to the back. 24 hours after the sensitization, 1 ml of a 0.5% Evans blue solution containing 1 mg of DNP-BSA was intravenously administered. Further, 30 minutes after the administration, the rats were sacrificed and the back skin was collected. The test compound, or only a vehicle as a control, was orally administered four hours prior to the antigen challenge. The length and breadth of the skin blue spot were calipered, and the area of the blue spot was calculated as length×breadth. The PCA inhibition rate by the test substance was calculated by the following formula. In the formula, • C represents: a blue spot area by PCA reaction when only the vehicle was administered, and • X represents: a blue spot area by PCA reaction when the test compound was administered. Inhibition rate (%)=(C−X)×100/C

Syk = target: T1, Syk (Homo sapiens, UniProt P43405); test: Syk inhibition test; assay type: biochemical; settings: poly(L-glu-L-tyr) substrate, ATP 5 μM, [γ-33P]ATP, 30 minutes room temperature; read-out: Syk inhibitory activity IC50
T1 construct: purchased Wako Pure Chemical Industries
Method: 10 ng/10 μl/well of a Syk (Wako Pure Chemical Industries) solution, 15 μl of a poly(L-glu-L-tyr) substrate peptide solution (Sigma, final concentration 5 μM), 20 μl of an ATP mixture (ATP: Oriental Yeast, final concentration 5 μM, [γ-33P]ATP: GE Healthcare Biosciences, 0.1 μCi/well) and 5 μl of a test substance solution were added to a 96-well Corning reaction plate, followed by incubation at room temperature for 30 minutes. An assay buffer containing 50 mM Tris pH 7.5, 10 mM MgCl2, 0.1 mM Na3VO4, 1 mM DTT, 0.01% CHAPS and 100 μg/ml BSA was used. The test substance solution was made by dissolving the test substance in DMSO at each concentration. The final concentration of DMSO was 1%. The reaction was terminated by adding 100 μl of a 120 mM phosphoric acid solution as a reaction terminator. Then, the total reaction solution was transferred to MultiScreen (Millipore) and washed with 200 μl of 100 mM phosphoric acid four times.
After drying, 20 μl of MicroScint-O (PerkinElmer) was added and the radioactivity was measured by TopCount (PerkinElmer). The ratio of the radioactivity when the test substance was added to the radioactivity when the test substance was not added was determined. The IC50 value was calculated from the inhibition rate at each concentration and used as an index of inhibitory activity.

Abl = target: T2, Abl (Homo sapiens, UniProt P00519); test: Abl inhibition test; assay type: biochemical; settings: Abltide substrate, ATP 6 μM, [γ-33P]ATP, 40 minutes room temperature; read-out: Abl inhibitory activity IC50
T2 construct: purchased Wako Pure Chemical Industries
Method: 5 ng/5 μl/well of an Abl (Wako Pure Chemical Industries) solution, 30 μl of an Abltide substrate peptide solution (Wako Pure Chemical Industries; final concentration 5 μM) and 5 μl of a test substance solution were added to a 96-well plate (Corning), followed by incubation at room temperature for 15 minutes. Then, 10 μl of an ATP mixture (ATP: Oriental Yeast, final concentration 6 μM, [γ-33P]ATP: GE Healthcare Biosciences, 0.06 μCi/well, MgAcetate: Cosmo Bio, final concentration 10 mM) was added, followed by incubation at room temperature for 40 minutes. The Abl solution was prepared using a kinase buffer (20 mM MOPS pH 7.0, 1 mM EDTA, 0.1% β-mercaptoethanol, 0.01% Brij-35, 5% glycerol, 1 mg/ml BSA). The substrate peptide solution and the ATP mixture were prepared using 8 mM MOPS pH 7.0 and 0.2 mM
EDTA. The test substance solution was made by dissolving the test substance in DMSO at each concentration. The final concentration of DMSO was 1%. The reaction was terminated by adding 100 μl of a 100 mM phosphoric acid solution as a reaction terminator. Then, the total reaction solution was transferred to a 96-well MultiScreen plate (Millipore) and washed with 200 μl of 100 mM phosphoric acid three times. After drying, 20 μl of MicroScint-O (PerkinElmer) was added and the radioactivity was measured by TopCount (PerkinElmer). After subtracting the radioactivity in the well to which the Abltide substrate peptide was not added from each radioactivity, the ratio of the radioactivity when the test substance was added to the radioactivity when the test substance was not added was determined. The IC50 value was calculated from the inhibition rate at each concentration and used as an index of inhibitory activity.

[1] = tested on: collagen-induced arthritis; test: Mouse collagen-induced arthritis (CIA) test; assay type: in vivo; settings: male DBA/1 mice, oral administration for 42 consecutive days, arthritis score
Method: Seven-week-old male DBA/1 mice were sensitized by intradermal administration of bovine type II collagen/complete Freund's adjuvant emulsion (150 μg/0.1 ml/mouse) to the tail head. 21 days after the primary sensitization, the mice were similarly boosted by intradermal administration of bovine type II collagen/complete Freund's adjuvant emulsion (100 μg/0.1 ml/mouse) to the tail head. After the booster, the degree of arthritis was scored by observation for each extremity twice a week on the following scale. • 0: No arthritis • 1: Edema in one finger joint • 2: Edema in two or more finger joints or instep • 3: Edema in tarsus or ankle • 4: Severe edema or joint deformation Oral administration of the test compound, or only a vehicle as a control, was started 30 minutes prior to the booster, and administration was carried out for 42 consecutive days thereafter. For each day passed, the total score for the extremities was provided as an arthritis score for one individual (0 to 16), and the arthritis onset inhibitory effect was evaluated as an average value for eight cases using the vehicle-administered group as a control group.

[2] = tested on: Human mast cell line LAD cells; test: Degranulation test using human mast cell line LAD cells; assay type: cell-based; settings: IgE-sensitized LAD cells, anti-human IgE stimulation, β-hexosaminidase release, read-out: degranulation inhibitory activity IC50
Method: Human mast cell line LAD cells were sensitized with human IgE (Cosmo Bio; final concentration 1 μg/ml) overnight. The cells were harvested, and then washed with PBS (Invitrogen) and washed again with Tyrode's buffer solution (Sigma) containing 0.1% BSA (Sigma). The cells were seeded into a 96-well plate at 10^5 cells/well and then the compound (0.1% final concentration DMSO solution) was added, followed by incubation at 37° C. for 15 minutes. Rabbit anti-human IgE (Dako Japan; final concentration 10 μg/ml) or control Ig (Dako Japan; final concentration 10 μg/ml) was added, followed by incubation at 37° C. for 30 minutes. The supernatant was recovered and p-nitrophenyl-2-acetamido-2-deoxy-β-D-glucopyranoside (Sigma; final concentration 4 mM), a substrate of β-hexosaminidase which is an index of degranulation, was added, followed by incubation at 37° C. for 45 minutes. Glycine (Wako; final concentration 0.2 M, pH 10.4) was added and the reaction was terminated. Then, the absorbance at 405 nm was measured.
The inhibition rate (%) was calculated as (anti-IgE antibody degranulation rate—compound-added group degranulation rate)/(anti-IgE antibody degranulation rate—control antibody degranulation rate)×100. The IC50 value was calculated from the inhibition rate at each concentration and used as an index of inhibitory activity.

T2 sequence (P00519 whole entry, species assumed): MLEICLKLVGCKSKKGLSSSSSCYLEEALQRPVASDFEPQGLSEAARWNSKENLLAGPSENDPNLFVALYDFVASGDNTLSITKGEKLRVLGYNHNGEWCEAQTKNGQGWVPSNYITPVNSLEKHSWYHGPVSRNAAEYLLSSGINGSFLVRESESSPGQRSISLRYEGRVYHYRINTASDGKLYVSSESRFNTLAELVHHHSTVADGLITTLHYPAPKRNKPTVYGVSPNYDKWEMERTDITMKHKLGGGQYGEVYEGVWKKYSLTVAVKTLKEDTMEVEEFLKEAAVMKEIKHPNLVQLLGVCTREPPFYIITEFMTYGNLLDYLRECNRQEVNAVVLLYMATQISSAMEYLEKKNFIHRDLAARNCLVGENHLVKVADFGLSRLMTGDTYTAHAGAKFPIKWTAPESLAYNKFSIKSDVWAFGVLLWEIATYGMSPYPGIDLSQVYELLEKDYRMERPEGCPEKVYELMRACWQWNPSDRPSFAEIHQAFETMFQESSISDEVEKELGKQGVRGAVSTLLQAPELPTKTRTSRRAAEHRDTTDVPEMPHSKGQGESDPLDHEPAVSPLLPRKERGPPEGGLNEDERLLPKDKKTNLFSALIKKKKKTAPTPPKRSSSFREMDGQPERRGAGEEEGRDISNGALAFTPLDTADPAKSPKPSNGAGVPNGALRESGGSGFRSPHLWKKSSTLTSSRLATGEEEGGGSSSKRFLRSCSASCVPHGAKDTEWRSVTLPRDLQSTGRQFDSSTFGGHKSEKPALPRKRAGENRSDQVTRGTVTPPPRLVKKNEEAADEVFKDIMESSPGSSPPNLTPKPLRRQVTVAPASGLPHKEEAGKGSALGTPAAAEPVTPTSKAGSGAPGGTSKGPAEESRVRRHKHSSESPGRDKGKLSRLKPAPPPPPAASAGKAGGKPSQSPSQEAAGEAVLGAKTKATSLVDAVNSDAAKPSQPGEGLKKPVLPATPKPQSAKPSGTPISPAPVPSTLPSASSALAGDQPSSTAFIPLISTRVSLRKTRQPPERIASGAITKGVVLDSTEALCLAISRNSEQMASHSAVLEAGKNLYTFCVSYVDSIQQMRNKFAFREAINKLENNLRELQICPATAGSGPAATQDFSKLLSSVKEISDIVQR

Row | Compound | inhibition of PCA reaction (PCA reaction) | IC50 (Syk) | IC50 (Abl) | inhibition of the onset of arthritis in the CIA model [1] | IC50 [2]
1 | CS(=O)(=O)c1n[nH]c2nc(Nc3ccc(N4CCOCC4)cc3)nc(NC3CC3)c12 [Compound 6, N^4-Cyclopropyl-3-(methylsulfonyl)-N^6-(4-morpholin-4-ylphenyl)-1H-pyrazolo[3,4-d]pyrimidine-4,6-diamine] | excellently inhibited PCA reaction | 0.16 µM | ≤ 0.05 µM | – | –
2 | CS(=O)(=O)c1n[nH]c2nc(Nc3ccc(N4CCOCC4)cc3)nc(NC3CC3)c12 [Compound 7] | – | – | – | excellently inhibited the onset of arthritis | 0.024 µM
3 | CSc1n[nH]c2nc(Nc3ccc(N4CCOCC4)cc3)nc(N[C@H]3CC[C@@H](N)CC3)c12 [Compound 112] | – | 0.02 µM | ≤ 0.01 µM | – | 0.019 µM
